Assays:
AMPK-α1 AT mutant = target: T1, AMPK-α1 AT mutant (Homo sapiens, UniProt Q13131, A167T); experiment: AMPK activity of FLAG-tagged AMPK-α1 AT mutant expressed in HEK293 cells; format: cell-based; conditions: AT mutant FLAG-α1, 1 hr
T1 construct: we expressed FLAG-tagged full-length AMPK-α1 either as the WT or the AT mutant; expressed in transfected cells; host or cells: HEK293 (transient transfection)
From the text: The α1-KD was precipitated using anti-FLAG and endogenous AMPK complexes using anti-α1 antibody, and activity determined. Results (mean ± SD, n = 2) are expressed relative to activities in DMSO controls. (B) Western blots (n = 2) using the indicated antibodies; samples from experiment in (A). (C) DNAs encoding FLAG-tagged AMPK-α1 (WT or AT mutant) were expressed by transient transfection in HEK293 cells, the cells treated with increasing concentrations of SU6656 for 1 hr, AMPK complexes precipitated with anti-FLAG, and activity measured. Results (mean ± SD, n = 3) are expressed relative to the DMSO control. […] Results (mean ± SD, n = 3) are expressed relative to the DMSO control. **p < 0.01, ***p < 0.001, ****p < 0.0001, ^†††p < 0.001; ns, not significant.
To confirm that it acted by binding at the catalytic site, we expressed FLAG-tagged full-length AMPK-α1 either as the WT or the AT mutant.

Erk1/2 = Erk1/2 phosphorylation in SYF cells; format: cell-based, mouse; conditions: SU6656 100 μM, PP2 100 nM
α2-KD = target: T2, α2-KD (Homo sapiens, UniProt P54646); experiment: Activation and phosphorylation of unphosphorylated α2-KD (WT) by LKB1; format: biochemical
T2 construct: amplifying residues 1-310 with 5' BamH1 and 3' Xho1 sites; made in house; host or cells: bacteria
T2 sequence (P54646 1-310): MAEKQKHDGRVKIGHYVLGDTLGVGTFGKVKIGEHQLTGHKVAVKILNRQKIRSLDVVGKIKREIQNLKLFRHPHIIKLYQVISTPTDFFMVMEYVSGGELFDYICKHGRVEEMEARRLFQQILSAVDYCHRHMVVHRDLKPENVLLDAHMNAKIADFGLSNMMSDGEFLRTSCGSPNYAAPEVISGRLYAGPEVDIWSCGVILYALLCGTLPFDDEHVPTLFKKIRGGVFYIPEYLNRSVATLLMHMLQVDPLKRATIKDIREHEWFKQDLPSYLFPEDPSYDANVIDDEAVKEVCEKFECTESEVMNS
From the text: (§1) (B) Effect of ATP concentration on kinase activity of α2-KD in the presence of increasing concentrations of SU6656. Results (mean, n = 2) were fitted to the equation Y= (Vmax × X)/(Km × (1 + I/Ki) + X), where Y is the activity, X is the ATP concentration, I is the concentration of SU6656, and Ki is the inhibitory constant for SU6656. […] (D and E) Effect of increasing concentrations of SU6656 on activity (D) and Thr172 phosphorylation (E) induced by LKB1 with unphosphorylated α2-KD (WT/AT mutant). Results in (D) are mean ± SEM (n = 3); and were fitted to same equation as Figure 4C. […] See also Figure S3. (F) Effect of AMP (2 mM) and SU6656 on inactivation of AMPK by PP2Cα in the presence of 5 mM ATP. […] (G) Effects of AMP or SU6656 on activation (top) and Thr172 phosphorylation (bottom) by LKB1 of AMPK-γ1 complexes expressed in HeLa cells. FLAG-tagged AMPK-γ1, either wild-type (WT) or R299G mutant (RG), was expressed in HeLa cells and AMPK complexes precipitated using anti-FLAG antibody. The complexes (which have low basal phosphorylation due to lack of LKB1 in HeLa cells) were incubated with or without a limiting amount of LKB1, AMP (200 μM) or SU6656 (3 μM) for 10 min and AMPK activity determined.
(§2) We next used unphosphorylated α2-KD and tested the effect of SU6656 on its activation and phosphorylation by LKB1.

AMPK-γ1 complexes (WT) = target: T3, AMPK-γ1 complexes (WT) (Homo sapiens, UniProt P54619); experiment: Activation by LKB1 of FLAG-AMPK-γ1 (WT) complexes precipitated from HeLa cells; format: biochemical; conditions: AMP 200 μM or SU6656 3 μM, 10 min
T3 construct: Plasmid encoding full-length human AMPK-γ1; expressed in transfected cells; host or cells: HeLa
T3 sequence (P54619 whole entry, one chain of several): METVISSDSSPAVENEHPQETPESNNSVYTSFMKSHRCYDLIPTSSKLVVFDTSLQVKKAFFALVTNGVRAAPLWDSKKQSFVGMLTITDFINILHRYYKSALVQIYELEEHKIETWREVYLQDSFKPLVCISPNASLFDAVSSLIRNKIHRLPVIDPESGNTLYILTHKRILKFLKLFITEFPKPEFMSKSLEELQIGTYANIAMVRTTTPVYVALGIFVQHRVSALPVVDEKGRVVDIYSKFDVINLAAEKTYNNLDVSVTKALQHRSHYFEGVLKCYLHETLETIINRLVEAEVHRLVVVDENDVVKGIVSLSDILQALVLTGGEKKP
From the text: as §1, with “determined. […]” for “determined.”

LKB1 versus AMPK = tested on: LKB1 versus AMPK; parameters: method as in MRC Kinase Inhibitor Database; conditions: ref MRC Kinase Inhibitor Database; cited from earlier work
α2-KD A156T (AT) mutant = target: T4, α2-KD A156T (AT) mutant (Homo sapiens, UniProt P54646, A156T); experiment: Activation and phosphorylation of unphosphorylated α2-KD AT mutant by LKB1; format: biochemical
T4 construct: amplifying residues 1-310 with 5' BamH1 and 3' Xho1 sites; made in house; host or cells: bacteria
T4 sequence (P54646 1-310 A156T): as the sequence (P54646 1-310) above, with A156T counted along it
From the text: as §1, §2

[1] = target: α2 kinase domain (α2-KD, residues 1–310) (Homo sapiens, UniProt P54646); experiment: biochemical
Chain of α2 kinase domain (α2-KD, residues 1–310) (P54646 1-310): as the sequence (P54646 1-310) above

mice = tested on: mice; parameters: method as in Yamada et al., 2010; conditions: ref Yamada et al., 2010; cited from earlier work
human AMPK-α2 (WT) = human AMPK-α2 (WT) (Homo sapiens, UniProt P54646); experiment: AMPK activity of FLAG-tagged WT AMPK-α2 expressed in HEK293 cells; format: cell-based; conditions: SU6656 100 μM, phenformin 10 mM, A23187 10 μM, 1 hr
Chain of human AMPK-α2 (WT) (P54646 whole entry, the tested form may be a part): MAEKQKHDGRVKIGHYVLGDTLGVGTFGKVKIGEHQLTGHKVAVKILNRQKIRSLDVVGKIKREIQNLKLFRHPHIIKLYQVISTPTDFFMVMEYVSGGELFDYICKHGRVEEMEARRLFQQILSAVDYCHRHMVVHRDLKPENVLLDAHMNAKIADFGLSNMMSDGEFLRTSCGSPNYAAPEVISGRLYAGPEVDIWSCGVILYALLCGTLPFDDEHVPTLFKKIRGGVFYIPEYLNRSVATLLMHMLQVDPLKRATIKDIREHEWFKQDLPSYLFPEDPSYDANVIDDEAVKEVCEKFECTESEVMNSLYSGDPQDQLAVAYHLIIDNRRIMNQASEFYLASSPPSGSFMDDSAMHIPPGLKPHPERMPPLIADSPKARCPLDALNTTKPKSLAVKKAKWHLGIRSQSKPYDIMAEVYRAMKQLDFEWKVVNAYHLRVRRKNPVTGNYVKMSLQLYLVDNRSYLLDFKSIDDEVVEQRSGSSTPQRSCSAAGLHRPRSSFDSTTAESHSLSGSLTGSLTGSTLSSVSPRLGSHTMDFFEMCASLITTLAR
Chain of human AMPK-α2 (WT) (P54619 whole entry partner, the tested form may be a part): as the sequence (P54619 whole entry, one chain of several) above
Description: Top: AMPK activity (mean ± SEM, n = 4); bottom: western blots showing phosphorylation of Thr172 on AMPK, and of ERK1/2, in cells treated with DMSO (control), SU6656 (100 μM), or PP2 (100 nM) (n = 2). (B) As (A), but in SYF cells. (C) HeLa cells were transfected with DNAs encoding GFP alone, or GFP fused to WT, Y261F/Y365F (FF), or Y36F/Y261F/Y365F (FFF) mutants of LKB1; cells were treated with increasing concentrations of SU6656 for 1 hr and AMPK activity determined (mean ± SEM, n = 4). See also Figure S1. (D) HEK293 cells were transfected with DNAs encoding FLAG-tagged AMPK-α2 with or without a Y436F mutation. Cells were incubated with DMSO (control), 100 μM SU6656, 10 mM phenformin, or 10 μM A23187 for 1 hr; AMPK complexes were immunoprecipitated using anti-FLAG antibody and assayed. The top panels show kinase activities (mean ± SD, n = 3); the bottom panels show blots from the same experiment (n = 2). In all panels, asterisks indicate significant differences from DMSO controls; in (D), there were no significant differences between the WT and Y463F mutant. **p < 0.01, ****p < 0.0001.

T1 sequence (Q13131 whole entry A167T): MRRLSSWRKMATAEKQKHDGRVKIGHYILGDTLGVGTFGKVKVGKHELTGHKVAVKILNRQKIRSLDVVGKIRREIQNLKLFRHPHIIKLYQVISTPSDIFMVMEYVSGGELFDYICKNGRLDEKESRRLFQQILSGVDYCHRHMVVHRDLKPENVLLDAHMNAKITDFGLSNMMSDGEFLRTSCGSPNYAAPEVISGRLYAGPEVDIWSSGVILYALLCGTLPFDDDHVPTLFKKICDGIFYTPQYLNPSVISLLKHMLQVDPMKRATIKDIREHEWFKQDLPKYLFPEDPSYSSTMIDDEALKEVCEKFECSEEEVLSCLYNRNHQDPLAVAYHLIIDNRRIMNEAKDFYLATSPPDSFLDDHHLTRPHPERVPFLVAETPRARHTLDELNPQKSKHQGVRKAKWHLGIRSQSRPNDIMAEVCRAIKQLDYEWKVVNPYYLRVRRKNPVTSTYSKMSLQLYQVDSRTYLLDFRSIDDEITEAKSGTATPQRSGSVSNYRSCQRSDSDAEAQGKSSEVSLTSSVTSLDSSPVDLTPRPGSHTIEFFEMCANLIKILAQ
T1 sequence (P54619 whole entry partner): as the sequence (P54619 whole entry, one chain of several) above

CN(C)S(=O)(=O)c1ccc2c(c1)/C(=C/c1cc3c([nH]1)CCCC3)C(=O)N2 [SU6656]
AMPK activity (AMPK-α1 AT mutant): greatly reduced | Erk1/2 phosphorylation (Erk1/2): inhibited Erk1/2 phosphorylation | activation of α2-KD by LKB1 (α2-KD; SU6656 up to 10 μM): 1.9 ± 0.2 fold | Kd (α2-KD; read-out: half-maximal effect on α2-KD activation by LKB1): 200 ± 20 nM | activation and Thr172 phosphorylation by LKB1 (AMPK-γ1 complexes (WT)): promoted activation and increased Thr172 phosphorylation | potency of LKB1 inhibition relative to AMPK inhibition (LKB1 versus AMPK): inhibition of LKB1 was less potent than that of AMPK | EC50 (α2-KD A156T (AT) mutant): 70 nM | activation of α2-KD by LKB1 (α2-KD A156T (AT) mutant): 1.07 fold | IC50 [1]: 220 ± 20 nM | Ki [1]: 170 nM | fatty acid oxidation (mice): increased fatty acid oxidation | AMPK activity in anti-FLAG immunoprecipitates (human AMPK-α2 (WT)): all activated AMPK
